Laboratory results: patent US8822495B2, “Azacyclyl-substituted aryldihydroisoquinolinones, process for their preparation and their use as medicaments” (Sanofi, priority 2006, dated 2014)
pIC50: −log10 of the molar value.

Each compound was assayed against T1, human MCH receptor (Homo sapiens, UniProt Q99705) (assay: functional IC50 of MCH1R antagonists: cellular calcium flux (FLIPR), called calcium immobilization assay). Settings: calcium flux after addition of agonist (MCH), recombinant HEK293 cell line expressing the human MCH receptor.
T1 construct: expressed in transfected cells
T1 sequence (Q99705 whole entry): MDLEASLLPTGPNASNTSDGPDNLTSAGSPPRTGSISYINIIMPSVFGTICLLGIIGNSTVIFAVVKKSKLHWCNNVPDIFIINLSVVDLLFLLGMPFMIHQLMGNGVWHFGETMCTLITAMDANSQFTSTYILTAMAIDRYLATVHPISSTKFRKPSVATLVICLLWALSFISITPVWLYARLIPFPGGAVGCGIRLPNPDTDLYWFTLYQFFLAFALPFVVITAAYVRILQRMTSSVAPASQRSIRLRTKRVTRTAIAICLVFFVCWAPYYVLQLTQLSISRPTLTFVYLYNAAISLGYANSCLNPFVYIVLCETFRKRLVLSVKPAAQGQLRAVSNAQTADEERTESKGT
Format: cell-based
Excerpt: Influence on the MCH receptor in vitro; determination of functional IC50 values of MCH1R antagonists
Cloning of the cDNA for the human MCH receptor, preparation of a recombinant HEK293 cell line which expresses the human MCH receptor, and functional measurements with the recombinant cell line took place in analogy to the description by Audinot et al. (J. Biol. Chem. 276, 13554-13562, 2001). A difference from the reference was, however, the use of the plasmid pEAK8 from EDGE Biosystems (USA) for the construction of the expression vector. The host used for the transfection was a transformed HEK cell line named “PEAK Stable Cells” (likewise from EDGE Biosystems). Functional measurements of the cellular calcium flux after addition of agonist (MCH) in the presence of ligand of the invention took place with the aid of the FLIPR apparatus from Molecular Devices (USA), using protocols of the apparatus manufacturer. The compounds of the invention show a significant inhibition (>30%) of the signal induced by the agonist at a concentration of 100 μM, preferably at 10 μM, particularly preferably at 1 μM, very particularly preferably at 100 nM and even more particularly preferably at 10 nM.

Row | SMILES | pIC50
1 | CO[C@@H]1CN(c2ccc(-n3ccc4cc(OC[C@H]5CCCO5)ccc4c3=O)cc2F)C[C@H]1N(C)C (relative stereo) [Example 353, 2-[4-((3R*,4R*)-3-Dimethylamino-4-methoxy-pyrrolidin-1-yl)-3-fluorophenyl]-6-[(R)-1-(tetrahydrofuran-2-yl)methoxy]-2H-isoquinolin-1-one] | 4.62
2 | CCCCOc1ccc2c(c1)CCN(c1ccc(N3CCC(N(C)C)C3)c(Cl)c1)C2=O (stereo not drawn) [Example 1, 6-Butoxy-2-[3-chloro-4-(3-dimethylaminopyrrolidin-1-yl)phenyl]-3,4-dihydro-2H-isoquinolin-1-one] | 6.00
3 | CCCCOc1ccc2c(c1)CCN(c1ccc(N3CC[C@@H](N(C)CCS(C)(=O)=O)C3)c(F)c1)C2=O [Example 14, 6-Butoxy-2-(3-fluoro-4-{(R)-3-[(2-methanesulfonylethyl)methylamino]pyrrolidin-1-yl}phenyl)-3,4-dihydro-2H-isoquinolin-1-one] | 5.97
4 | CC1CCN(c2ccc3c(c2)CCN(c2ccc(N4CC[C@@H](N(C)C)C4)c(F)c2)C3=O)CC1 [Example 24, 2-[4-((R)-3-Dimethylaminopyrrolidin-1-yl)-3-fluorophenyl]-6-(4-methylpiperidin-1-yl)-3,4-dihydro-2H-isoquinolin-1-one] | 5.92
5 | CCCCOc1ccc2c(c1)CCN(c1ccc(N3CCC(N4CCN(C(C)=O)CC4)C3)cc1)C2=O (stereo not drawn) [Example 39, 2-{4-[3-(4-Acetylpiperazin-1-yl)pyrrolidin-1-yl]phenyl}-6-butoxy-3,4-dihydro-2H-isoquinolin-1-one] | 6.64
6 | CCCCOc1ccc2c(c1)CCN(c1ccc(N3CCC(NCCCN4CCCC4=O)C3)cc1)C2=O (stereo not drawn) [Example 45] | 6.66
7 | CN[C@@H]1CCN(c2ccc(N3CCc4cc(OC5CC(C)OC5=O)ccc4C3=O)cc2F)C1 (stereo partly drawn) [Example 84] | 5.20
8 | CC(C)C(=O)Nc1ccc2c(c1)CCN(c1ccc(N3CC[C@@H](N(C)C)C3)c(F)c1)C2=O [Example 95] | 5.47
9 | CN(C)[C@@H]1CCN(c2ccc(N3CCc4cc(N5C[C@H]6CCCN6C5=O)ccc4C3=O)cc2F)C1 [Example 99] | 5.77
10 | CC(O)CCNc1ccc2c(c1)CCN(c1ccc(N3CC[C@@H](N(C)C)C3)c(F)c1)C2=O (stereo partly drawn) [Example 106] | 5.38
11 | CC1=C(C)C(=O)N(c2ccc3c(c2)CCN(c2ccc(N4CC[C@@H](N(C)C)C4)c(F)c2)C3=O)C1 [Example 112] | 5.12
12 | C[C@@H](O)C#Cc1ccc2c(=O)n(-c3ccc(N4CC[C@@H](N5CCCC5)C4)c(F)c3)ccc2c1 [Example 136] | 7.00
13 | O=c1c2ccc(OCC(O)C(F)(F)F)cc2ccn1-c1ccc(N2CC[C@@H](N3CCCC3)C2)c(F)c1 (stereo partly drawn) [Example 154] | 6.74
14 | CC1(O)CCCC1Oc1ccc2c(=O)n(-c3ccc(N4CC[C@@H](N5CCCC5)C4)c(F)c3)ccc2c1 (stereo partly drawn) [Example 168] | 5.86
15 | CC[C@H](O)COc1ccc2c(c1)CCN(c1ccc(N3CC[C@]4(CCN(CCCF)C4)C3)cc1)C2=O [Example 176] | 6.51
16 | CC1CCOC1COc1ccc2c(=O)n(-c3ccc(N4CC[C@@H](N5CCCC5)C4)c(F)c3)ccc2c1 (stereo partly drawn) [Example 202] | 6.30
17 | CC(C)(O)CN1CC[C@]2(CCN(c3ccc(N4CCc5cc(OC[C@@H]6CCCO6)ccc5C4=O)cc3)C2)C1 [Example 206] | 6.70

Row | SMILES | pIC50
18 | O=c1c2ccc(OCCCF)cc2ccn1-c1ccc(N2CC[C@]3(CCN(CCCF)C3)C2)cc1 [Example 210] | 6.44
19 | CN(C)[C@@H]1CCN(c2ccc(N3CCc4cc(OC5CCC(O)C5)ccc4C3=O)cc2F)C1 (stereo partly drawn) [Example 219] | 5.84
20 | CN(C)[C@@H]1CCN(c2ccc(N3CCc4cc(OCC5(C)COC5)ccc4C3=O)cc2F)C1 [Example 224] | 5.85
21 | O=C1CCCN1CCOc1ccc2c(=O)n(-c3ccc(N4CC[C@@H](N5CCCC5)C4)c(F)c3)ccc2c1 [Example 246] | 4.88
22 | CC(O)CCOc1ccc2c(=O)n(-c3ccc(N4CC[C@@H](N5CCCC5)C4)c(F)c3)ccc2c1 (stereo partly drawn) [Example 251] | 6.39
23 | O=C1c2ccc(OC[C@@H]3CCCO3)cc2CCN1c1ccc(N2CCC(N3CC4CCC4C3)C2)c(F)c1 (stereo partly drawn) [Example 264] | 6.23
24 | CC[C@H](O)COc1ccc2c(c1)CCN(c1ccc(N3CCC4CN(C)CC43)cc1)C2=O (stereo partly drawn) [Example 287] | 5.71
25 | COCCCNC1CCN(c2ccc(-n3ccc4cc(OC[C@H]5CCCO5)ccc4c3=O)cc2F)C1 (stereo partly drawn) [Example 303] | 6.42
26 | CC1(O)CCN(C2CCN(c3ccc(-n4ccc5cc(OC[C@H]6CCCO6)ccc5c4=O)cc3F)C2)CC1 (stereo partly drawn) [Example 321] | 6.82
27 | CN1C[C@H]2CCN(c3ccc(-n4ccc5cc(OC[C@@H]6CCCO6)ccc5c4=O)cc3)[C@H]2C1 [Example 324] | 6.70
28 | COc1cc(-n2ccc3cc(OC[C@@H]4CCCO4)ccc3c2=O)ccc1N1CCCN(C)CC1 [Example 326] | 6.66
29 | CC(=O)N(C)C1CCCN(c2ccc(-n3ccc4cc(OC[C@@H]5CCCO5)ccc4c3=O)cc2)C1 (stereo partly drawn) [Example 327] | 5.43
30 | O=c1c2ccc(OC[C@H]3CCCO3)cc2ccn1-c1ccc(N2CCC3(CNCCO3)C2)c(F)c1 (stereo partly drawn) [Example 341] | 5.80
31 | CN1CC2(CCN(c3ccc(-n4ccc5cc(OC[C@H]6CCCO6)ccc5c4=O)cc3F)C2)C1 [Example 354] | 6.66
32 | CN(C)C1(C)CCN(c2ccc(-n3ccc4cc(OC[C@H]5CCCO5)ccc4c3=O)cc2F)C1 (stereo partly drawn) [Example 356, 2-[4-(3-Dimethylamino-3-methyl-pyrrolidin-1-yl)-3-fluorophenyl]-6-[(R)-1-(tetrahydrofuran-2-yl)methoxy]-2H-isoquinolin-1-one] | 5.94
33 | CN(C)[C@@H]1CCN(c2ccc(N3CCc4cc(C#CC(C)(C)O)sc4C3=O)cc2)C1 [Example 361] | 5.59
